# Reference: patent US4307100A (priority 1978, dated 1981)
# Legend:
# tubulin [1] = test: Inhibition of the polymerisation of tubulin (UV, 350 nm); format: biochemical, pigs; conditions: for I50/I50 vinblastine: tartrates, tubulin concentration ~ 2 mg/ml, ratio to vinblastine
# From the text: (§1) The receiver of anti-tumoral indolic alkaloids of the vinblastine type is tubulin.
# (§2) It is readily extracted from pigs' brains where it preresents 10% of the soluble proteins.
# (§3) The polymerisation of tubulin into microtubules may readily be followed by means of a UV spectrophotometer observing at 350 nm. The maximum polymerisation velocity is thus determined; it is reduced by the addition of inhibitors of the vinblastine type and a concentration, I50, reducing the polymerisation velocity by half is obtained for each substance tested. A second effect of these products is taken into consideration: with higher doses, after complete inhibition of polymerisation, spiralisation of the tubulin is observed (verified by electron microscopy) and a new concentration, S50, corresponding to the appearance of 50% of the phenomenon is determined.
# (§4) The results of each product are always compared with those of the vinblastine used as reference.
# (§5) The results of the interaction tests with
# (§6) tubulin carried out on the tartrates are summarised
# (§7) in the following Table (tubulin concentration
# (a) I50 : concentration of the product inhibiting 50% of the velocit
# of polymerisation of the tubulin. I50 vinblastine = 2,10^-6.
# tubulin [2] = test: Spiralisation of tubulin (S50); format: biochemical, pigs; conditions: for S50/S50 vinblastine: tartrates, tubulin concentration ~ 2 mg/ml, ratio to vinblastine
# From the text: as §1, §2, §3, §4, §5, §6, §7
# (b) S50 : concentration of the product required for inducing 50% of
# the maximum spiralisation of the tubulin.
# P388 leukaemia = test: Activity in the P388 leukaemia test on mice; format: in vivo, mice (DBA/2 female); conditions: tartrate; for ratio of T and C (formula drawing 15): C = average life of treated, control group; for Mean survival period: control 10.5 ± 0.8
# Protocol: Table II below exemplifies the results obtained with the compound of Example 1 in the form of its tartrate in the treatment of P388 leukaemia.
# T=average life (in days) of the mice of the treated group
# C=average life (in days) of the mice of the control group
# Graft: P 388 (10^6 cell./mice ip)
# (§8) Graft→treatment interval: 24 h.
# L1210 leukaemia = test: Activity in the L1210 leukaemia test on mice; format: in vivo, mice (DBA/2 female); conditions: tartrate
# Protocol: Table III below summarises the results obtained with the compound of Example 1 in the form of its tartrate in the treatment of L1210 leukaemia:
# as §8
# Conc. 0.5 and 1 mg/ml in physiological serum.
# [3] = Toxicity of the product of Example 1 in tartrate form, single dose, mortality over 35 days; format: in vivo, DBA/2 female mice; conditions: for Distribution of mortality, 1: column 1 (day); for Distribution of mortality, 6: column 6 (day); for Distribution of mortality, 3: column 3 (day)
# From the text: A single dose of the test product is intraperitoneally administered to DBA/2 .female. mice and the mortality rate studied over a period of 35 days.
# leukaemia studied = test: Leukaemia tests on mice, overall conclusion; format: in vivo; conditions: in words, compared with vincristine and vinblastine
# From the text: (2) Activity in the P388 leukaemia test on mice
# (3) Activity in the L1210 leukaemia test on mice
# [4] = comparison value, cited from earlier work; for DL50: i.v.
smiles,measurement,setting,value
CCC12CN3Cc4c([nH]c5ccccc45)[C@@](C(=O)OC)(c4cc5c(cc4OC)N(C=O)[C@H]4[C@@](O)(C(=O)OC)[C@H](OC(C)=O)[C@]6(CC)C=CCN7CC[C@]54[C@@H]76)C[C@@H](C3)C1O2 (stereo partly shown) [5'-nor-Na-desmethyl Na-formyl leurosine],I50/I50 vinblastine,tubulin [1],2.77
same,S50/S50 vinblastine,tubulin [2],2.5
CCC1=C[C@@H]2CN(C1)Cc1c([nH]c3ccccc13)[C@@](C(=O)OC)(c1cc3c(cc1OC)N(C)[C@H]1[C@@](O)(C(=O)OC)[C@H](OC(C)=O)[C@]4(CC)C=CCN5CC[C@]31[C@@H]54)C2 [5'-noranhydrovinblastine],activity in regard to the inhibition of polymerisation,"tubulin [1]; in words, compared with vinblastine",activity similar to vinblastine
same,I50/I50 vinblastine,tubulin [1],0.7
same,"""spiralising"" activity",tubulin [2]; in words,"does not have any ""spiralising"" activity"
same,S50/S50 vinblastine,tubulin [2],0.8-1.0
same,I.L.S. (formula drawing 14),P388 leukaemia; 5 mg/kg i.p.,29.5
same,ratio of T and C (formula drawing 15),P388 leukaemia; 5 mg/kg i.p.,129.5
same,Mean survival period,P388 leukaemia; 5 mg/kg i.p.,13.6 ± 0.8 days
same,I.L.S. (formula drawing 14),P388 leukaemia; 10 mg/kg i.p.,70.5
same,ratio of T and C (formula drawing 15),P388 leukaemia; 10 mg/kg i.p.,170.5
same,Mean survival period,P388 leukaemia; 10 mg/kg i.p.,17.9 ± 0.9 days
same,I.L.S. (formula drawing 14),P388 leukaemia; 25 mg/kg i.p.,≥ 131.4
same,ratio of T and C (formula drawing 15),P388 leukaemia; 25 mg/kg i.p.,≥ 231.4
same,Mean survival period,P388 leukaemia; 25 mg/kg i.p.,≥ 24.3 days
same,I.L.S. (formula drawing 16),L1210 leukaemia; 5 mg/kg i.p.,40
same,ratio (formula drawing 17),L1210 leukaemia; 5 mg/kg i.p.,140
same,Mean survival period,"L1210 leukaemia; 5 mg/kg i.p., control 8.6 ± 0.4",12.0 ± 0.9 days
same,I.L.S. (formula drawing 16),"L1210 leukaemia; 10 mg/kg i.p., first line",57
same,Mean survival period,"L1210 leukaemia; 10 mg/kg i.p., first line, control 8.6 ± 0.4",13.5 ± 0.9 days
same,ratio (formula drawing 17),"L1210 leukaemia; 10 mg/kg i.p., first value",157
same,I.L.S. (formula drawing 16),"L1210 leukaemia; 10 mg/kg i.p., second line",50
same,Mean survival period,"L1210 leukaemia; 10 mg/kg i.p., second line, control 8.6 ± 0.7",12.9 ± 1.3 days
same,ratio (formula drawing 17),"L1210 leukaemia; 10 mg/kg i.p., second value",150
same,I.L.S. (formula drawing 16),"L1210 leukaemia; 25 mg/kg i.p., first line",65
same,Mean survival period,"L1210 leukaemia; 25 mg/kg i.p., first line, control 8.6 ± 0.4",14.2 days
same,ratio (formula drawing 17),"L1210 leukaemia; 25 mg/kg i.p., first value",165
same,I.L.S. (formula drawing 16),"L1210 leukaemia; 25 mg/kg i.p., second line",57
same,Mean survival period,"L1210 leukaemia; 25 mg/kg i.p., second line, control 8.6 ± 0.7",13.5 days
same,ratio (formula drawing 17),"L1210 leukaemia; 25 mg/kg i.p., second value",157
same,"Distribution of mortality, 1",[3]; 50 mg/kg i.p.,1
same,"Distribution of mortality, 4","[3]; 50 mg/kg i.p., column 4 (day)",1
same,"Distribution of mortality, 6",[3]; 50 mg/kg i.p.,1
same,"Distribution of mortality, 9","[3]; 50 mg/kg i.p., column 9 (day)",1
same,Mortality over 35 days,"[3]; 50 mg/kg single i.p. dose, tartrate, 5 mice",4/5
same,"Distribution of mortality, 1",[3]; 75 mg/kg i.p.,3
same,"Distribution of mortality, 3",[3]; 75 mg/kg i.p.,1
same,"Distribution of mortality, 6",[3]; 75 mg/kg i.p.,1
same,"Distribution of mortality, 3",[3]; 100 mg/kg i.p.,3
same,Mortality over 35 days,"[3]; 100 mg/kg single i.p. dose, tartrate, 3 mice",3/3
same,toxicity compared with vincristine and vinblastine,[3]; in words,far less toxic
same,mortality at 840 h,"[3]; mouse, in vivo, ip, 25 mg/kg single i.p. dose, tartrate, 5 mice",0%
same,DL0,"[3]; single i.p. dose, tartrate, DBA/2 female mice, 35 days",25 mg/kg
same,activity on the leukaemia studied,leukaemia studied,more active than vincristine and vinblastine
CCC1=C[C@@H]2CN(C1)Cc1c([nH]c3ccccc13)[C@@](C(=O)OC)(c1cc3c(cc1OC)N(C=O)[C@H]1[C@@](O)(C(=O)OC)[C@H](OC(C)=O)[C@]4(CC)C=CCN5CC[C@]31[C@@H]54)C2 [5'-noranhydrovincristine],I50/I50 vinblastine,tubulin [1],0.8
same,S50/S50 vinblastine,tubulin [2],0.66
CCC12CN3Cc4c([nH]c5ccccc45)[C@@](C(=O)OC)(c4cc5c(cc4OC)N(C)[C@H]4[C@@](O)(C(=O)OC)[C@H](OC(C)=O)[C@]6(CC)C=CCN7CC[C@]54[C@@H]76)C[C@@H](C3)C1O2 (stereo partly shown) [5'-norleurosine],I50/I50 vinblastine,tubulin [1],1.0
same,S50/S50 vinblastine,tubulin [2],3
CCC1=C[C@@H]2CN(C1)Cc1c([nH]c3ccccc13)[C@@](C(=O)OC)(c1cc3c(c(Cl)c1OC)N(C)[C@H]1[C@@](O)(C(=O)OC)[C@H](OC(C)=O)[C@]4(CC)C=CCN5CC[C@]31[C@@H]54)C2 [12-chloro-5'-noranhydrovinblastine],I50/I50 vinblastine,tubulin [1],13
"CCC1=C[C@@H]2CN(CCc3c([nH]c4ccccc34)[C@@](C(=O)OC)(c3cc4c(cc3OC)N(C=O)[C@H]3[C@@](O)(C(=O)OC)[C@H](OC(C)=O)[C@]5(CC)C=CCN6CC[C@]43[C@@H]65)C2)C1 [anhydrovincristine, reference compound]",I50/I50 vinblastine,tubulin [1],1.8
same,S50/S50 vinblastine,tubulin [2],1.5
"CC[C@]1(O)C[C@@H]2CN(CCc3c([nH]c4ccccc34)[C@@](C(=O)OC)(c3cc4c(cc3OC)N(C)[C@H]3[C@@](O)(C(=O)OC)[C@H](OC(C)=O)[C@]5(CC)C=CCN6CC[C@]43[C@@H]65)C2)C1 [vinblastine, reference compound]",IC50,"tubulin [1]; reference vinblastine, unit inferred, read-out: I50: concentration of the product inhibiting 50% of the velocity of polymerisation of the tubulin (converted)",[…]
same,DL50,[4],17 mg/kg
CC[C@]1(O)C[C@H]2CN(CCc3c([nH]c4ccccc34)[C@@](C(=O)OC)(c3cc4c(cc3OC)N(C=O)[C@H]3[C@@](O)(C(=O)OC)[C@H](OC(C)=O)[C@]5(CC)C=CCN6CC[C@]43[C@@H]65)C2)C1 [vincristine],DL10,[4]; route not given,3 mg/kg
same,DL50,[4],2 mg/kg
